Measured values from patent US20210363213A1, “GLUCAGON-GLP-1-GIP TRIPLE AGONIST COMPOUNDS” (priority 2013, published 2021).
Numbered stars: 1 amine (or outer) side, 2 acyl side, 3 side chain; on linkers, the order of the positions; unused ones are H or OH. Square brackets hold non-standard residues; d marks the D form. Side chains are listed from the residue outwards. Peptide text beside a SMILES is read from it. * marks the point of attachment. γGlu = O=C(O)[C@H](CCC(=O)[*:2])N[*:1]; Stearoyl = CCCCCCCCCCCCCCCCCC(=O)*; AEEA = NCCOCCOCC(=O)O; Aib = CC(C)(N)C(=O)O

Molecular target: T1, human GLP-1 R (Homo sapiens, UniProt P43220)
T1 construct: expressed in transfected cells
T1 sequence (P43220 24-463): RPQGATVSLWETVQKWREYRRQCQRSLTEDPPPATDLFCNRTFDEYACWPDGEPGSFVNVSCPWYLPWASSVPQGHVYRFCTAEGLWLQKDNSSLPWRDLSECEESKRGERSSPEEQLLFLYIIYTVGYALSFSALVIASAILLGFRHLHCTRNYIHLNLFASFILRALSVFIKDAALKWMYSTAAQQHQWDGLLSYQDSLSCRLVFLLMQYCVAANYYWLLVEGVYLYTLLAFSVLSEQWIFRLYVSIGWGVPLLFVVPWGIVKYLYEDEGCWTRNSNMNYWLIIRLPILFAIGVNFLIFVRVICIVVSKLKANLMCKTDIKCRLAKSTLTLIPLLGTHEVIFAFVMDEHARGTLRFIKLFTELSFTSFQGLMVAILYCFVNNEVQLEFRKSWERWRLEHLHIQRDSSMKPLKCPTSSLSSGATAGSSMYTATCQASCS
Assay: Human GLP-1 receptor (GLP-1-R) activity assay, cAMP induction (AlphaScreen) in HEK293 cells
Type: cell-based
Conditions: Table 2b (most comprehensive data); average EC50; cAMP in HEK293 cells expressing human GLP-1 R; read-out: GLP1 R (EC50 in nM)
Procedure: (§1) Briefly, HEK293 cells expressing the human GIP R, GLP-1 R or GCG R (stable cell lines generated through transfection of the cDNA for human GIP R, GLP-1 R or GCG R and selection of stable clones) were seeded at 30,000 cells/well in 96-well microtiter plates coated with 0.01% poly-L-lysine, and grown for 1 day in culture in 200 μl growth medium (DMEM, 10% FCS, Penicillin (100 IU/ml), Streptomycin (100 μg/ml)). On the day of analysis, growth medium was removed and the cells were washed once with 150 μl Tyrode's buffer (Tyrode's Salts (9.6 g/I), 10 mM HEPES, pH 7.4). […] The Assay buffer was removed and cells are lysed in 80 μl Lysis buffer (0.1% w/v BSA, 5 mM HEPES, 0.3% v/v Tween-20) per well. From each well 10 μl of lysed cells were transferred to a 384-well plate and mixed with 15 μl bead-mix (1 Unit/15 μl anti-cAMP Acceptor Beads, 1 Unit/15 μl Donor Beads, and 1 Unit/15 μl Biotinylated cAMP in Assay Buffer). The plates were mixed and incubated in the dark for an hour at room temperature before measuring using an Envision™ plate reader (Perkin-Elmer).
(§2) The resulting cAMP curves were plotted as absolute cAMP concentrations (nM) over log (test compound concentration) and analyzed using the curve fitting program XLfit.
(§3) Parameters calculated to describe both the potency as well as the agonistic activity of each test compound on the receptors were:
(§4) EC50, a concentration resulting in a half-maximal elevation of cAMP levels, reflecting the potency of the test compound.

In order of rising EC50:
1. CCCCCCCCCCCCCCCCCC(=O)N[C@@H](CCC(=O)NCCOCCOCC(=O)NCCOCCOCC(=O)NCCCC[C@H](NC(=O)[C@H](CCCCN)NC(=O)[C@H](CC(=O)O)NC(=O)[C@H](CC(C)C)NC(=O)[C@H](Cc1ccc(O)cc1)NC(=O)[C@@H](NC(=O)[C@H](CO)NC(=O)[C@H](Cc1ccc(O)cc1)NC(=O)[C@H](CC(=O)O)NC(=O)[C@H](CO)NC(=O)[C@@H](NC(=O)[C@H](Cc1ccccc1)NC(=O)[C@@H](NC(=O)CNC(=O)[C@H](CCC(N)=O)NC(=O)C(C)(C)NC(=O)[C@@H](N)Cc1ccc(O)cc1)[C@@H](C)O)[C@@H](C)O)[C@@H](C)CC)C(=O)N[C@@H](C)C(=O)N[C@@H](CCC(N)=O)C(=O)N[C@@H](CCCNC(=N)N)C(=O)N[C@@H](C)C(=O)N[C@@H](Cc1ccccc1)C(=O)N[C@H](C(=O)N[C@@H](CCC(=O)O)C(=O)N[C@@H](Cc1c[nH]c2ccccc12)C(=O)N[C@@H](CC(C)C)C(=O)N[C@@H](CC(C)C)C(=O)N[C@@H](C)C(=O)N[C@@H](CCC(N)=O)C(=O)NCC(=O)N1CCC[C@H]1C(=O)N[C@@H](CO)C(=O)N[C@@H](CO)C(=O)NCC(=O)N[C@@H](C)C(=O)N1CCC[C@H]1C(=O)N1CCC[C@H]1C(=O)N1CCC[C@H]1C(=O)N[C@@H](CO)C(N)=O)C(C)C)C(=O)O [Compound 35] (H-Y[Aib]QGTFTSDYSIYLDKK([AEEA-AEEA-γGlu-Stearoyl])AQRAFVEWLLAQGPSSGAPPPS-NH2)  0.012 nM
2. CC[C@H](C)[C@H](NC(=O)[C@H](CO)NC(=O)[C@H](Cc1ccc(O)cc1)NC(=O)[C@H](CC(=O)O)NC(=O)[C@H](CO)NC(=O)[C@@H](NC(=O)[C@H](Cc1ccccc1)NC(=O)[C@@H](NC(=O)CNC(=O)[C@H](CCC(N)=O)NC(=O)C(C)(C)NC(=O)[C@@H](N)Cc1ccc(O)cc1)[C@@H](C)O)[C@@H](C)O)C(=O)N[C@@H](Cc1ccc(O)cc1)C(=O)N[C@@H](CC(C)C)C(=O)N[C@@H](CC(=O)O)C(=O)N[C@@H](CCC(=O)O)C(=O)N[C@@H](CCCCN)C(=O)N[C@@H](C)C(=O)N[C@@H](C)C(=O)N[C@@H](CCCCN)C(=O)N[C@@H](CC(=O)O)C(=O)N[C@@H](Cc1ccccc1)C(=O)N[C@H](C(=O)N[C@@H](CCC(=O)O)C(=O)N[C@@H](Cc1c[nH]c2ccccc12)C(=O)N[C@@H](CC(C)C)C(=O)N[C@@H](CC(C)C)C(=O)N[C@@H](CO)C(=O)N[C@@H](C)C(N)=O)C(C)C [Compound 17] (HELM PEPTIDE1{Y.[Aib].Q.G.T.F.T.S.D.Y.S.I.Y.L.D.E.K.A.A.K.D.F.V.E.W.L.L.S.A.[am]}$$$$V2.0)  0.013 nM
3. CC(C)C[C@H](NC(=O)[C@H](C)NC(=O)[C@H](CCCCN)NC(=O)[C@H](CO)NC(=O)[C@H](Cc1ccc(O)cc1)NC(=O)[C@H](CC(=O)O)NC(=O)[C@H](CO)NC(=O)[C@@H](NC(=O)[C@H](Cc1ccccc1)NC(=O)[C@@H](NC(=O)CNC(=O)[C@H](CCC(N)=O)NC(=O)C(C)(C)NC(=O)[C@@H](N)Cc1ccc(O)cc1)[C@@H](C)O)[C@@H](C)O)C(=O)N[C@@H](CC(=O)O)C(=O)N[C@@H](CCC(=O)O)C(=O)N[C@@H](CCCCN)C(=O)N[C@@H](C)C(=O)N[C@@H](C)C(=O)N[C@@H](CCCCN)C(=O)N[C@@H](CCC(=O)O)C(=O)N[C@@H](Cc1ccccc1)C(=O)N[C@H](C(=O)N[C@@H](CCC(=O)O)C(=O)N[C@@H](Cc1c[nH]c2ccccc12)C(=O)N[C@@H](CC(C)C)C(=O)N[C@@H](CC(C)C)C(=O)N[C@@H](CO)C(=O)N[C@@H](C)C(N)=O)C(C)C [Compound 21] (HELM PEPTIDE1{Y.[Aib].Q.G.T.F.T.S.D.Y.S.K.A.L.D.E.K.A.A.K.E.F.V.E.W.L.L.S.A.[am]}$$$$V2.0)  0.015 nM
4. CCCCCCCCCCCCCCCCCC(=O)N[C@@H](CCC(=O)NCCOCCOCC(=O)NCCOCCOCC(=O)NCCCC[C@H](NC(=O)[C@H](CCCCN)NC(=O)[C@H](CCC(=O)O)NC(=O)[C@H](CC(C)C)NC(=O)[C@H](C)NC(=O)[C@@H](NC(=O)[C@H](CO)NC(=O)[C@H](Cc1ccc(O)cc1)NC(=O)[C@H](CC(=O)O)NC(=O)[C@H](CO)NC(=O)[C@@H](NC(=O)[C@H](Cc1ccccc1)NC(=O)[C@@H](NC(=O)CNC(=O)[C@H](CCC(N)=O)NC(=O)C(C)(C)NC(=O)[C@@H](N)Cc1ccc(O)cc1)[C@@H](C)O)[C@@H](C)O)[C@@H](C)CC)C(=O)N[C@@H](C)C(=O)N[C@@H](CCC(N)=O)C(=O)N[C@@H](CCCNC(=N)N)C(=O)N[C@@H](C)C(=O)N[C@@H](Cc1ccccc1)C(=O)N[C@H](C(=O)N[C@@H](CCC(=O)O)C(=O)N[C@@H](Cc1c[nH]c2ccccc12)C(=O)N[C@@H](CC(C)C)C(=O)N[C@@H](CC(C)C)C(=O)N[C@@H](C)C(=O)N[C@@H](CCC(N)=O)C(=O)N[C@@H](CCCCN)C(N)=O)C(C)C)C(=O)O [Compound 46] (H-Y[Aib]QGTFTSDYSIALEKK([AEEA-AEEA-γGlu-Stearoyl])AQRAFVEWLLAQK-NH2)  0.016 nM
5. CC(C)C[C@H](NC(=O)[C@H](CC(C)C)NC(=O)[C@H](Cc1c[nH]c2ccccc12)NC(=O)[C@H](CCC(=O)O)NC(=O)[C@@H](NC(=O)[C@H](Cc1ccccc1)NC(=O)[C@H](CCC(=O)O)NC(=O)[C@H](CCCCN)NC(=O)[C@H](CCC(N)=O)NC(=O)[C@H](C)NC(=O)[C@H](CCCCN)NC(=O)[C@H](CCCCN)NC(=O)[C@H](CCC(=O)O)NC(=O)[C@H](CC(C)C)NC(=O)[C@H](Cc1ccc(O)cc1)NC(=O)[C@H](CCCCN)NC(=O)[C@H](CO)NC(=O)[C@H](Cc1ccc(O)cc1)NC(=O)[C@H](CC(=O)O)NC(=O)[C@H](CO)NC(=O)[C@@H](NC(=O)[C@H](Cc1ccccc1)NC(=O)[C@@H](NC(=O)CNC(=O)[C@H](CCC(N)=O)NC(=O)C(C)(C)NC(=O)[C@@H](N)Cc1ccc(O)cc1)[C@@H](C)O)[C@@H](C)O)C(C)C)C(=O)N[C@@H](CO)C(=O)N[C@@H](C)C(N)=O [Compound 22] (HELM PEPTIDE1{Y.[Aib].Q.G.T.F.T.S.D.Y.S.K.Y.L.E.K.K.A.Q.K.E.F.V.E.W.L.L.S.A.[am]}$$$$V2.0)  0.03 nM
6. CCCCCCCCCCCCCCCC(=O)N[C@@H](CCC(=O)NCCCC[C@H](NC(=O)[C@H](CCC(=O)O)NC(=O)[C@H](CC(C)C)NC(=O)[C@H](Cc1ccc(O)cc1)NC(=O)[C@@H](NC(=O)[C@H](CO)NC(=O)[C@H](Cc1ccc(O)cc1)NC(=O)[C@H](CC(=O)O)NC(=O)[C@H](CO)NC(=O)[C@@H](NC(=O)[C@H](Cc1ccccc1)NC(=O)[C@@H](NC(=O)CNC(=O)[C@H](CCC(N)=O)NC(=O)C(C)(C)NC(=O)[C@@H](N)Cc1ccc(O)cc1)[C@@H](C)O)[C@@H](C)O)[C@@H](C)CC)C(=O)N[C@@H](CCCCN)C(=O)N[C@@H](C)C(=O)N[C@@H](C)C(=O)N[C@@H](CCCCN)C(=O)N[C@@H](CCC(=O)O)C(=O)N[C@@H](Cc1ccccc1)C(=O)N[C@H](C(=O)N[C@@H](CCC(=O)O)C(=O)N[C@@H](Cc1c[nH]c2ccccc12)C(=O)N[C@@H](CC(C)C)C(=O)N[C@@H](CC(C)C)C(=O)N[C@@H](CO)C(=O)N[C@@H](C)C(N)=O)C(C)C)C(=O)O [Compound 24] (HELM PEPTIDE1{Y.[Aib].Q.G.T.F.T.S.D.Y.S.I.Y.L.E.K.K.A.A.K.E.F.V.E.W.L.L.S.A.[am]}|PEPTIDE2{[CCCCCCCCCCCCCCCC(=O)[*:2]].[gGlu]}$PEPTIDE1,PEPTIDE2,16:R3-2:R2$$$V2.0)  0.11 nM

Molecular target: T2, human GIP R (Homo sapiens, UniProt P48546)
T2 construct: expressed in transfected cells
T2 sequence (P48546 22-466): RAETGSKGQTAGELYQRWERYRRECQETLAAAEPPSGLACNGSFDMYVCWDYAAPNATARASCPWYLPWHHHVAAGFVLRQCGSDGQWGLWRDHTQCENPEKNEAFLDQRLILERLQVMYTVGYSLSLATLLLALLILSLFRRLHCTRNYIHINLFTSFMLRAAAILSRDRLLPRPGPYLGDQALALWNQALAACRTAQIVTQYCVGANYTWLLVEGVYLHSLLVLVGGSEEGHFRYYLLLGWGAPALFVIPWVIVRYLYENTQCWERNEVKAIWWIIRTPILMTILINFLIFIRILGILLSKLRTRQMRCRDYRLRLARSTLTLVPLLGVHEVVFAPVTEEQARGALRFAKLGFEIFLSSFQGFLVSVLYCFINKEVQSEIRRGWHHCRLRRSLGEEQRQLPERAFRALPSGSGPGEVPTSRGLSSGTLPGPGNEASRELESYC
Assay: Human GIP receptor (GIP-R) activity assay, cAMP induction (AlphaScreen) in HEK293 cells
Type: cell-based
Conditions: Table 2b (most comprehensive data); average EC50; cAMP in HEK293 cells expressing human GIP R; read-out: GIP R (EC50 in nM)
Procedure: as §1, §2, §3, §4

In order of falling EC50:
1. CCCCCCCCCCCCCCCC(=O)N[C@@H](CCC(=O)NCCCC[C@H](NC(=O)[C@H](CO)NC(=O)[C@H](CC(=O)O)NC(=O)[C@H](CC(C)C)NC(=O)[C@H](Cc1ccc(O)cc1)NC(=O)[C@@H](NC(=O)[C@H](CO)NC(=O)[C@H](Cc1ccc(O)cc1)NC(=O)[C@H](CC(=O)O)NC(=O)[C@H](CO)NC(=O)[C@@H](NC(=O)[C@H](Cc1ccccc1)NC(=O)[C@@H](NC(=O)CNC(=O)[C@H](CCC(N)=O)NC(=O)C(C)(C)NC(=O)[C@@H](N)Cc1ccc(O)cc1)[C@@H](C)O)[C@@H](C)O)[C@@H](C)CC)C(=O)N[C@@H](C)C(=O)N[C@@H](C)C(=O)N[C@@H](Cc1c[nH]cn1)C(=O)N[C@@H](CC(=O)O)C(=O)N[C@@H](Cc1ccccc1)C(=O)N[C@H](C(=O)N[C@@H](CCC(=O)O)C(=O)N[C@@H](Cc1c[nH]c2ccccc12)C(=O)N[C@@H](CC(C)C)C(=O)N[C@@H](CC(C)C)C(=O)N[C@@H](CO)C(=O)N[C@@H](C)C(=O)NCC(=O)N1CCC[C@H]1C(=O)N[C@@H](CO)C(=O)N[C@@H](CO)C(=O)NCC(=O)N[C@@H](C)C(=O)N1CCC[C@H]1C(=O)N1CCC[C@H]1C(=O)N1CCC[C@H]1C(=O)N[C@@H](CO)C(N)=O)C(C)C)C(=O)O [Compound 29] (HELM PEPTIDE1{Y.[Aib].Q.G.T.F.T.S.D.Y.S.I.Y.L.D.S.K.A.A.H.D.F.V.E.W.L.L.S.A.G.P.S.S.G.A.P.P.P.S.[am]}|PEPTIDE2{[CCCCCCCCCCCCCCCC(=O)[*:2]].[gGlu]}$PEPTIDE1,PEPTIDE2,17:R3-2:R2$$$V2.0)  0.064 nM
2. CCCCCCCCCCCCCCCCCC(=O)N[C@@H](CCC(=O)NCCOCCOCC(=O)NCCOCCOCC(=O)NCCCC[C@H](NC(=O)[C@H](CCCCN)NC(=O)[C@H](CC(=O)O)NC(=O)[C@H](CC(C)C)NC(=O)[C@H](Cc1ccc(O)cc1)NC(=O)[C@@H](NC(=O)[C@H](CO)NC(=O)[C@H](Cc1ccc(O)cc1)NC(=O)[C@H](CC(=O)O)NC(=O)[C@H](CO)NC(=O)[C@@H](NC(=O)[C@H](Cc1ccccc1)NC(=O)[C@@H](NC(=O)CNC(=O)[C@H](CCC(N)=O)NC(=O)C(C)(C)NC(=O)[C@@H](N)Cc1ccc(O)cc1)[C@@H](C)O)[C@@H](C)O)[C@@H](C)CC)C(=O)N[C@@H](C)C(=O)N[C@@H](CCC(N)=O)C(=O)N[C@@H](CCCNC(=N)N)C(=O)N[C@@H](C)C(=O)N[C@@H](Cc1ccccc1)C(=O)N[C@H](C(=O)N[C@@H](CCC(=O)O)C(=O)N[C@@H](Cc1c[nH]c2ccccc12)C(=O)N[C@@H](CC(C)C)C(=O)N[C@@H](CC(C)C)C(=O)N[C@@H](C)C(=O)N[C@@H](CCC(N)=O)C(=O)NCC(=O)N1CCC[C@H]1C(=O)N[C@@H](CO)C(=O)N[C@@H](CO)C(=O)NCC(=O)N[C@@H](C)C(=O)N1CCC[C@H]1C(=O)N1CCC[C@H]1C(=O)N1CCC[C@H]1C(=O)N[C@@H](CO)C(N)=O)C(C)C)C(=O)O [Compound 35] (H-Y[Aib]QGTFTSDYSIYLDKK([AEEA-AEEA-γGlu-Stearoyl])AQRAFVEWLLAQGPSSGAPPPS-NH2)  0.01 nM
